Literature values as cited in publication PMC9159073 (Journal of medicinal chemistry, 2022).
Read-outs that look alike come from different tables or passages of the source.

Assays:
SARS-CoV-2 PL^pro [1] = settings: increase in FluoZin-3 fluorescence
SARS-CoV-2 PL^pro [2] = settings: for IC50: read-out: Enzymatic inhibition IC50; for Inhibition of SARS-CoV-2 PLpro: IC50 not quantified
SARS-CoV-2 PL^pro [3] = system: SARS-CoV-2 PL^pro
SARS-CoV-2 PL^pro [4] = system: SARS-CoV-2 PL^pro; remark: listed apart in the source
SARS-CoV-2 PL^pro [5] = settings: read-out: IC50 (FP assay)
SARS-CoV-2 PL^pro [6] = settings: read-out: KD (SPR)
[7] = system: host DUBs and DUB-like proteases; settings: 10 DUBs or DUB-like proteases
SARS-CoV-2 M^pro = settings: read-out: M^pro IC50; no reducing agent in the Mpro assay
SARS-CoV-2 PL^pro [8] = system: SARS-CoV-2 PL^pro; remark: listed apart in the source
SARS-CoV-2 [9] = system: SARS-CoV-2
SARS-CoV-2 [10] = settings: for Antiviral effect in combination with hydroxychloroquine: combined with hydroxychloroquine; for Antiviral activity in combination with remdesivir: combined with remdesivir
SARS-CoV-2 [11] = settings: read-out: Antiviral EC50; A549-hACE2 cells, virus yield reduction assay
SARS-CoV-2 PL^pro [12] = settings: read-out: IC50, deISGylating activity of PLpro; ISG15-Rh substrate
SARS-CoV-2 PL^pro [13] = settings: read-out: IC50, mass spectrometry assay; nsp 2/3 substrate
SARS-CoV-2 [14] = settings: read-out: Antiviral EC50
[15] = FRET assay, hit validation study
[16] = SARS-CoV-2 infected Vero E6 cells
[17] = read-out: Antiviral EC50 (qRTPCR), Vero E6 cells, qRT-PCR assay
[18] = read-out: IC50, deubiquitinating activity of PLpro

In the case of `c1ccc2sc(SSc3nc4ccccc4s3)nc2c1` [2,2’ -dithiobis(benzothiazole) (70), 2,2’ -dithiobis(benzothiazole)], the “Zinc ejection from PLpro” value (SARS-CoV-2 PL^pro [1]) is given as “eject zinc”.
For `c1ccc(SSc2ccccn2)nc1` [2,2’ -dithiodipyridine (69), 2,2’ -dithiodipyridine], the “Zinc ejection from PLpro” value (SARS-CoV-2 PL^pro [1]) is listed as “eject zinc”.
In the case of `O=C(O)c1cc(SSc2ccc([N+](=O)[O-])c(C(=O)O)c2)ccc1[N+](=O)[O-]` [5,5’ -dithiobis(2-nitrobenzoic acid)], the “Zinc ejection from PLpro” value (SARS-CoV-2 PL^pro [1]) is listed as “eject zinc”.
In the case of `Nc1nc2[nH]cnc2c(=S)[nH]1` [6-TG (26), 6-thioguanine], the IC50 (SARS-CoV-2 PL^pro [2]; [15]) is given as greater than 50 µM, the “Binding to PLpro in the thermal shift assay” value (SARS-CoV-2 PL^pro [3]) is given as “no binding” and the “Intracellular PLpro inhibition in the FlipGFP assay” value (“Intracellular PLpro inhibition” below) (SARS-CoV-2 PL^pro [4]) is given as “did not inhibit”.
For `Cc1ccc(NC2=CC(=O)c3sc(C)nc3C2=O)cc1` [Cdk4 inhibitor III (34)], the IC50 (SARS-CoV-2 PL^pro [2]; HTS) is listed as 0.39 µM.
For `Oc1c(Cl)cc(Cl)c2cccnc12` [Chloroxine (37), chloroxine], the “Binding to PLpro in the biolayer interferometry and thermal shift assays” value (SARS-CoV-2 PL^pro [3]) is given as “showed binding” and the IC50 (SARS-CoV-2 PL^pro [5]) is given as 7.24 µM.
For `C[C@H](c1cccc2ccccc12)N1CCC(C(=O)NCc2cc(F)cc(NC(=O)N3CCN(C)CC3)c2)CC1` [Compound 8], the IC50 (SARS-CoV-2 PL^pro [2]) is given as 0.44 µM, the Kd (SARS-CoV-2 PL^pro [6]) is given as 2.6 µM and the “Inhibition of a panel of host DUBs and DUB-like proteases” value [7] is given as “did not show significant inhibition”.
In the case of `CC1(C)OC2=C(C(=O)C(=O)c3ccccc32)C1n1cc(-c2ccccc2)nn1` (stereo not shown) [Compound 38], the IC50 (SARS-CoV-2 PL^pro [2]; 0.1 mM DTT in the PLpro assay) is listed as 1.7 µM.
For `CN(Cc1cn(C2C3=C(OC2(C)C)c2ccccc2C(=O)C3=O)nn1)C1=CC(=O)c2ccccc2C1=O` (stereo not shown) [Compound 39], the IC50 (SARS-CoV-2 PL^pro [2]; 0.1 mM DTT in the PLpro assay) is given as 2.2 µM.
For `CN(Cc1cn(C2C3=C(OC2(C)C)c2ccccc2C(=O)C3=O)nn1)C1=C(Br)C(=O)c2ccccc2C1=O` (stereo not shown) [Compound 40], the IC50 (SARS-CoV-2 PL^pro [2]; 0.1 mM DTT in the PLpro assay) is given as 3.1 µM and the IC50 (SARS-CoV-2 M^pro) is given as 66 µM.
In the case of `COC(=O)/C=C/C(=O)NNC(=O)CCc1ccc(NC(C)=O)cc1C(=O)N[C@H](C)c1cccc2ccccc12` [Compound 47], the IC50 (SARS-CoV-2 PL^pro [2]; covalent inhibitors) is listed as 0.23 µM and the “Antiviral EC50” value (SARS-CoV-2 [9]; [16]) is listed as “insignificant cytoprotective effects”.
For `C#CC(=O)NNC(=O)CCc1ccccc1C(=O)N[C@H](C)c1cccc2ccccc12` [Compound 48], the IC50 (SARS-CoV-2 PL^pro [2]; covalent inhibitors) is listed as 0.098 µM and the “Antiviral EC50” value (SARS-CoV-2 [9]; [16]) is listed as “cytotoxic”.
For `C[C@@H](NC(=O)c1ccccc1CCC(=O)NNC(=O)CCl)c1cccc2ccccc12` [Compound 49], the IC50 (SARS-CoV-2 PL^pro [2]; covalent inhibitors) is listed as 5.4 µM.
For `C[C@@H](NC(=O)c1ccccc1CCC(=O)NNC(=O)CC#N)c1cccc2ccccc12` [Compound 50], the IC50 (SARS-CoV-2 PL^pro [2]; covalent inhibitors) is listed as 8 µM.
In the case of `C[C@@H](NC(=O)c1ccccc1CCC(=O)NNC(=O)/C(C#N)=C/C1CC1)c1cccc2ccccc12` [Compound 51], the IC50 (SARS-CoV-2 PL^pro [2]; covalent inhibitors) is given as greater than 200 µM.
In the case of `CCN(CC)C(=S)SSC(=S)N(CC)CC` [Disulfiram (67), disulfiram], the “Zinc ejection from PLpro” value (SARS-CoV-2 PL^pro [1]) is listed as “eject zinc”, the “Inhibition of nsp13 ATPase activity” value (SARS-CoV-2 nsp13) is listed as “inhibit” and the “Inhibition of nsp14 exoribonuclease activity” value (SARS-CoV-2 nsp14) is listed as “inhibit”. The “Antiviral effect in combination with hydroxychloroquine” value (SARS-CoV-2 [10]) was “synergistic antiviral effect” and the “Antiviral activity in combination with remdesivir” value (SARS-CoV-2 [10]) was “synergistic”.
For `O=c1c2ccccc2[se]n1-c1ccccc1` [Ebselen (55), ebselen], the “Zinc ejection from PLpro” value (SARS-CoV-2 PL^pro [1]) is given as “eject zinc”, the “Inhibition of nsp13 ATPase activity” value (SARS-CoV-2 nsp13) is given as “inhibit” and the “Inhibition of nsp14 exoribonuclease activity” value (SARS-CoV-2 nsp14) is given as “inhibit”. For the same molecule, the “Antiviral effect in combination with hydroxychloroquine” value (SARS-CoV-2 [10]) was “synergistic antiviral effect” and the “Antiviral activity in combination with remdesivir” value (SARS-CoV-2 [10]) was “synergistic”.
In the case of `Cc1ccc(N)cc1C(=O)N[C@H](C)c1cccc2ccccc12` [GRL0617 (4), GRL0617], the EC50 (SARS-CoV-2 [11]) is listed as greater than 20 µM.
For `O=Cc1ccc(O)cc1` [HBA (22), 4-hydroxybenzaldehyde], the IC50 (SARS-CoV-2 PL^pro [12]) is listed as 3.99 ± 1.33 µM and the “Antiviral EC50 (qRTPCR)” value (SARS-CoV-2 [9]; Vero E6 cells, qRT-PCR assay) is listed as “not conclusive”.
For `COC(=O)c1ccc(O)c(O)c1` [HE9 (20), methyl 3,4-dihydroxybenzoate], the EC50 (SARS-CoV-2 [9]; read-out: Antiviral EC50 (CPE), cytopathic effect (CPE) assay) is listed as 10.4 µM and the EC50 (SARS-CoV-2 [9]; [17]) is listed as 0.13 µM.
For `C[C@H](c1ccccc1Cl)N(C)Cc1cc(O)ccc1Cl` [Jun9-13-9 (11)], the IC50 (SARS-CoV-2 PL^pro [2]; FRET-based enzymatic assay) is given as 6.67 µM.
For `CC(C)C(=O)OC[C@H]1O[C@@H](n2ccc(NO)nc2=O)[C@H](O)[C@@H]1O` [Molnupiravir (2), molnupiravir], the Ames test (bacteria) is listed as “positive”.
For `O=c1nc(NO)ccn1[C@@H]1O[C@H](CO)[C@@H](O)[C@H]1O` [NHC, β-d-N^4-hydroxycytidine], the Host mutational activity (mammalian cell culture) is given as “displayed host mutational activity”.
In the case of `O=C1c2ccccc2-c2nc3nnnn3nc21` [PKK1/Akt/Flt dual pathway inhibitor (32)], the IC50 (SARS-CoV-2 PL^pro [2]; HTS) is listed as 0.26 µM.
For `Cc1cc2nc3c(=O)[nH]c(=O)nc-3n(C)c2cc1C=O` [Ro 08–2750 (33)], the IC50 (SARS-CoV-2 PL^pro [2]; HTS) is listed as 0.53 µM.
In the case of `COCC[n+]1c2c(n(Cc3cnccn3)c1C)C(=O)c1ccccc1C2=O.[Br-]` [YM155 (27), YM155], the IC50 (SARS-CoV-2 PL^pro [2]; [15]) is listed as 20.1 µM, the IC50 (SARS-CoV-2 PL^pro [2]; FRET-based enzymatic assay, Arg-Leu-Arg-Gly-Gly-AMC substrate, 50 mM HEPES, pH 7.5, 2 mM DTT) is listed as 2.47 ± 0.46 µM and the “Intracellular PLpro inhibition” value (SARS-CoV-2 PL^pro [4]) is listed as “not conclusive due to cell cytotoxicity”. For the same molecule, the IC50 (SARS-CoV-2 PL^pro [13]) was greater than 50 µM.
For `OCCc1ccc(O)cc1` [YRL (21), 4-(2-hydroxyethyl)phenol], the IC50 (SARS-CoV-2 PL^pro [12]) is given as 6.68 ± 1.2 µM, the “Antiviral EC50 (CPE)” value (SARS-CoV-2 [9]; cytopathic effect (CPE) assay) is given as “failed to show inhibition” and the EC50 (SARS-CoV-2 [9]; [17]) is given as 1 µM.
For `O=C1c2c(O)cccc2[C@H]([C@@H]2O[C@H](CO)[C@@H](O)[C@H](O)[C@H]2O)c2cc(CO)cc(O)c21` [aloin A (42), aloin A], the IC50 (SARS-CoV-2 PL^pro [2]) is listed as 13.2 µM and the IC50 (SARS-CoV-2 PL^pro [8]; [18]) is listed as 15.7 µM.
For `O=C1c2c(O)cccc2[C@@H]([C@@H]2O[C@H](CO)[C@@H](O)[C@H](O)[C@H]2O)c2cc(CO)cc(O)c21` [aloin B (43), aloin B], the IC50 (SARS-CoV-2 PL^pro [2]) is given as 16.1 µM and the IC50 (SARS-CoV-2 PL^pro [8]; [18]) is given as 17.5 µM.
For `C[C@H]1COC2=C1C(=O)C(=O)c1c2ccc2c1CCCC2(C)C` [cryptotanshinone (28), cryptotanshinone], the “Intracellular PLpro inhibition” value (SARS-CoV-2 PL^pro [4]) is given as “not conclusive due to cell cytotoxicity” and the EC50 (SARS-CoV-2 [14]) is given as greater than 200 µM.
For `Cc1cccc2c3c(ccc12)C1=C(C(=O)C3=O)[C@@H](C)CO1` [dihydrotanshinone I (30), dihydrotanshinone I], the IC50 (SARS-CoV-2 PL^pro [2]; [15]) is listed as 33 µM and the IC50 (SARS-CoV-2 PL^pro [2]; HTS) is listed as 0.59 µM.
In the case of `CCC(CC)COC(=O)[C@H](C)N[P@](=O)(OC[C@H]1O[C@@](C#N)(c2ccc3c(N)ncnn23)[C@H](O)[C@@H]1O)Oc1ccccc1` [remdesivir (1), remdesivir], the EC50 (SARS-CoV-2 [9]; read-out: Antiviral EC50, SARS-CoV-2 infected Vero E6 cells) is given as 0.74 µM.
For `Cc1coc2c1C(=O)C(=O)c1c-2ccc2c1CCCC2(C)C` [tanshinone IIA (31), tanshinone IIA], the EC50 (SARS-CoV-2 [14]) is listed as greater than 200 µM.
In the case of `CC1(C)CCC2=C(O1)c1ccccc1C(=O)C2=O` [β-lapachone (35), β-lapachone], the IC50 (SARS-CoV-2 PL^pro [2]; HTS) is listed as 0.61 µM.
In the case of “Ac-Abu(Bth)-Dap-Gly-Gly-VME [VIR250 (44)]”, the “Inhibition of SARS-CoV-2 PLpro” value (SARS-CoV-2 PL^pro [2]) is listed as “dose-dependent inhibition” and the “Inhibition of SARS-CoV PLpro” value (SARS-CoV PL^pro) is listed as “dose-dependent inhibition”.
For Ac-hTyr-Dap-Gly-Gly-VME [VIR251 (45)], the “Inhibition of SARS-CoV-2 PLpro” value (SARS-CoV-2 PL^pro [2]) is listed as “dose-dependent inhibition” and the “Inhibition of SARS-CoV PLpro” value (SARS-CoV PL^pro) is listed as “dose-dependent inhibition”.
